Values after ≈ are worked out from the molar mass of the structure shown.
Details: buffer; pH 7.4; 200.0 µM

| SMILES | solubility kinetic [µg/mL] |
| --- | --- |
| COc1ccc(NC(=O)NC(C)c2ccccc2)cc1 (stereo unspecified) | 15.5 (≈ 57.3 µM) |
| CC(C)(C)C(=O)N/C(N)=N/c1nc2ccccc2o1 | 8.1 (≈ 31.1 µM) |
| COc1ccccc1C(=O)NCCC(=O)NCC(c1ccccc1)N(C)C (stereo unspecified) | > 55.4 |
| CN(CCO)CC(O)Cn1cnc2c1c(=O)n(C)c(=O)n2C.O=C(O)c1cccnc1 (stereo unspecified) | > 65.2 |
| CCOc1ccccc1NC(=O)c1ccc2nc[nH]c2c1 | > 42.2 |
| O=C(Nc1ccc(CN2CCOCC2)cc1)c1ccc(Br)cc1 | 0.6 (≈ 1.6 µM) |
| Cn1c(N2CCOCC2)c(C#N)c2ccccc21 | 17 (≈ 70.5 µM) |
| COc1ccc(OCC(=O)OC(C)CN2CCCCC2)cc1 (stereo unspecified) | > 46.1 |
| CCOC(=O)C(=CNc1ccc(N2CCOCC2)cc1)C(=O)OCC | > 52.3 |
| Cc1cc(C)c(OCCN2CCCC2)c(Cl)c1 | 27.8 (≈ 110 µM) |
| CC1(C)C2CCC1(C)C([NH2+]c1ccccc1)C2.[Cl-] (stereo unspecified) | < 0.6 |
| O=C(CN1C(=O)c2ccccc2C1=O)NC1CCC(O)CC1 (stereo unspecified) | > 45.3 |
| CN(CC(=O)O)S(=O)(=O)c1ccc2oc3ccccc3c2c1 | 40.1 (≈ 126 µM) |
| Cc1cccnc1NC(=O)c1ccc(OCc2c(C)noc2C)cc1 | 43.7 (≈ 130 µM) |
| O=C(c1ccc(Cl)cc1[N+](=O)[O-])N1CCc2ccccc2C1 | 6.1 (≈ 19.3 µM) |
| Cc1ccsc1C(=O)N1CC=C(c2ccccc2)CC1 | > 42.5 |
| O=C(/C=C/c1ccccc1)Oc1cccc(C(=S)N2CCOCC2)c1 | 4.6 (≈ 13 µM) |
| COc1ccc(/C=C/C(=O)OCC(=O)NC2CCCCCC2)cc1OC | 7.1 (≈ 19.6 µM) |
| CCNC(=S)NCc1ccc(OC)c(OC)c1 | > 38.2 |
| O=C(/C=C/c1cccnc1)c1ccc(O)cc1 | 28.5 (≈ 127 µM) |
| O=C(Oc1ccccc1)N1CCOCC1 | > 31.1 |
| Cl.N#C/C(=C\c1ccccc1)C(=O)NCCN1CCOCC1 | > 48.3 |

| SMILES | solubility kinetic [µg/mL] |
| --- | --- |
| Cc1ccc(-c2csc(NC3OC(=O)c4ccccc43)n2)cc1 (stereo unspecified) | 0.4 (≈ 1.24 µM) |
| COc1cc(OC)c(C2C(C#N)=C(C)NC(C)=C2C#N)c(C(=O)O)c1 | > 50.9 |
| CCc1cc(C(=O)c2ccc(OC)cc2)c(N)s1 | 20.9 (≈ 80 µM) |
| Cc1ccc(S(=O)(=O)N2CC[C@@H]2C(=O)O)cc1 | > 38.3 |
| O=C(C1CC(=O)N(c2ccc(F)cc2)C1)N1CCCCC1 (stereo unspecified) | 39 (≈ 134 µM) |
| Cc1ccc(C(=O)N[C@H](C(=O)Nc2ccc(F)cc2)C(C)C)cc1 | 3 (≈ 9.14 µM) |
| O=Cc1cn(CC(O)CN2CCCCC2)c2ccccc12 (stereo unspecified) | > 43 |
| CCC(C)c1ccccc1N=Cc1ccc2c(c1)OCO2 (stereo unspecified) | 7.1 (≈ 25.2 µM) |
| COc1ccc(C(=O)NC(C)CCc2ccccc2)cc1 (stereo unspecified) | 41.9 (≈ 148 µM) |
| CC(=O)N1c2ccc(Cl)cc2C2OCCC2C1c1ccco1 (stereo unspecified) | 42.2 (≈ 133 µM) |
| Cc1ccc(S(=O)(=O)N2CCOCC2)cc1C(=O)NC(C)CCc1ccccc1 (stereo unspecified) | 25.1 (≈ 60.3 µM) |
| CCN1CCc2c(OCC(=O)N3CCCCC3)cccc2C1=O | > 47.5 |
| COc1ccccc1C1CCN(C(=O)c2cccc([N+](=O)[O-])c2)CC1 | 39.5 (≈ 116 µM) |
| O=C(NCCSCc1ccco1)c1ccc(=O)[nH]c1 | 38.2 (≈ 137 µM) |
| CN(C)c1ccc(C(=O)OCC(=O)NCCC2=CCCCC2)cc1 | 4.7 (≈ 14.2 µM) |
| COc1ccc(NC(=O)C(Br)C(C)C)cc1 (stereo unspecified) | 40.7 (≈ 142 µM) |
| O=C(c1ccncc1)c1ccc(NC(=O)c2cccs2)cc1 | 45.9 (≈ 149 µM) |
| CC(C)[C@H](NC(=O)c1ccccc1F)C(=O)OCCN1C(=O)c2ccccc2C1=O | > 61.9 |
| Cc1ccc(-n2c(-c3ccccc3)c[nH]c2=S)cc1 | 0.6 (≈ 2.25 µM) |
| CCCc1ncc(C(O)c2cccc(OC)c2)n1C (stereo unspecified) | > 39.1 |
| CSc1ncccc1C(=O)Nc1ccncc1 | 34.6 (≈ 141 µM) |
| Cc1cc(S(=O)(=O)N2CCN(C(=O)c3ccco3)CC2)ccc1F | > 52.9 |

| SMILES | solubility kinetic [µg/mL] |
| --- | --- |
| CC(C)(C)c1ccc(C(=O)C2CCCN(C3CCC3)C2)cc1 (stereo unspecified) | 37.9 (≈ 127 µM) |
| O=[N+]([O-])c1cc(C(F)(F)F)ccc1N1CCN(CCO)CC1 | > 47.9 |
| C=CCNC(=S)N1CCC(C(N)=O)CC1 | > 34.1 |
| O=C(c1ccco1)N1CCCC(Nc2ccc3c(c2)OCCO3)C1 (stereo unspecified) | 44.7 (≈ 136 µM) |
| O=C(NC(=S)Nc1ccccc1Cl)C1CC1 | > 38.2 |
| COc1ccc(C=NNC(=O)c2cc(C)oc2C)cc1O | > 43.2 |
| Cc1ccc(Nc2c([N+](=O)[O-])ccc3nonc23)cc1C | 0.4 (≈ 1.41 µM) |
| Nc1sc2c(c1C(=O)NC1CC1)CCCC2 | 31 (≈ 131 µM) |
| CNC(=O)c1oc(-c2ccc(Cl)cc2)nc1C | > 37.6 |
| COCCNC(=O)C(C)OC(=O)C1=Cc2ccccc2OC1 (stereo unspecified) | > 45.8 |
| CSc1ccc(CNC(C)(C)CO)cc1.Cl | > 39.3 |
| O=[N+]([O-])c1cccc(Nc2c3ccccc3nc3ccccc23)c1 | 2.8 (≈ 8.88 µM) |
| COc1cc2c3c(c1)C(C)CC(C)(C)N3C(=O)C2=O (stereo unspecified) | 36.2 (≈ 140 µM) |
| O=C(NCCCc1ccccc1)c1cncc(Br)c1 | 47.9 (≈ 150 µM) |
| Cc1nc2sc(C(=O)Nc3ccccc3)c(N)c2c(C)c1[N+](=O)[O-] | 0.8 (≈ 2.34 µM) |
| CNC(=S)NCCc1c[nH]c2ccc(OC)cc12 | > 39.5 |
| O=C(NCCc1ccc(F)cc1)c1coc(=O)c(Br)c1 | 2.9 (≈ 8.53 µM) |
| NC(=O)Nc1ccc(C(=O)OCC(=O)c2c[nH]c3ccccc23)cc1 | 4.2 (≈ 12.5 µM) |
| COc1ccc(-c2cc(C(=O)Nc3ccc(F)cc3F)no2)cc1 | < 0.4 |
| NC(=O)C(c1ccccc1)c1ccc(C(=O)c2ccccc2)cc1 (stereo unspecified) | < 0.7 |
| Cc1cccc(OCC(=O)O/N=C(\N)c2ccncc2)c1 | > 42.8 |
| CCCCn1c(=O)c(C(=O)Nc2ccccc2F)c(O)c2ccccc21 | < 0.4 |

| SMILES | solubility kinetic [µg/mL] |
| --- | --- |
| CC(C)N(Cc1cnn(C)c1)Cc1nc(Cc2ccccc2Cl)no1 | > 54 |
| CN(C)c1ccc(NC(=O)Nc2cccc3ccccc23)cc1 | 2.6 (≈ 8.51 µM) |
| Nc1c(C(=O)Nc2ccccc2F)sc2nc(-c3cccnc3)ccc12 | 4.2 (≈ 11.5 µM) |
| Cc1ccc2oc(=O)n(CC(=O)OCCC(C)C)c2c1 | 16 (≈ 57.7 µM) |
| CCN(c1ccccc1)S(=O)(=O)c1ccc(C(=O)NC2CCN(Cc3ccccc3)CC2)cc1 | 47.8 (≈ 100 µM) |
| CN1C(=O)NC(c2ccccc2[N+](=O)[O-])C2=C1CC(C)(C)CC2=O (stereo unspecified) | 39.4 (≈ 120 µM) |
| CCOc1ccc(NC(=S)NC(=O)/C=C/c2ccco2)cc1 | < 0.3 |
| Cc1cc(C)c(S(=O)(=O)NCc2cccs2)cc1C | 36.5 (≈ 124 µM) |
| Cc1cc(C)c(S(=O)(=O)NCCc2ccncc2)c(C)c1 | 19.7 (≈ 64.7 µM) |
| Cc1ccc(S(=O)(=O)Nc2ccc3c(c2)OCCO3)cc1 | 42.3 (≈ 139 µM) |
| Cl.Nc1ccc(-c2nc3c(ccc4ccccc43)[nH]2)cc1 | > 44.4 |
| O=C(Cc1ccccc1F)Nc1ccc(S(=O)(=O)N2CCCC2)cc1 | 44.9 (≈ 124 µM) |
| CC(C)c1nc2sc3c(=S)nc[nH]c3c2c2c1CCC2 | 4.5 (≈ 14.9 µM) |
| CCOC(=O)Cn1nc(C)c([N+](=O)[O-])c1C | > 34.1 |
| CC(=O)c1ccccc1NS(=O)(=O)c1cccc2nsnc12 | 1.5 (≈ 4.5 µM) |
| Cc1cc(C)cc(CN2C(=O)NC3(CCCCCC3)C2=O)c1 | 18.1 (≈ 60.3 µM) |
| Cc1ccccc1N1CCN(Cc2ccc3c(c2)OCO3)CC1 | 21.5 (≈ 69.3 µM) |
| COc1cccc(/C=C(\C#N)c2nc3ccccc3[nH]2)c1OCC(=O)O | > 52.4 |
| NC(=O)CCC1NC(=S)N(Cc2ccccc2)C1=O (stereo unspecified) | 32.6 (≈ 118 µM) |
| CCOC(=O)Cc1cc(=O)n2[nH]c(C)c(-c3ccccc3OC)c2n1 | > 51.2 |

From PubChem BioAssay AID1996
